Patent US9573953B2, “Heteroaromatic compounds as PI3 kinase modulators and methods of use” (CALITOR SCIENCES, LLC, priority 2013, dated 2017)

Legend:
PI3K (p120γ) (h) = target: T1, PI3K (p120γ) (h) (Homo sapiens, UniProt P48736); assay: PI3K (p120γ) (h) non-radioactive (HTRF) assay; format: biochemical
T1 construct: purchased Millipore UK Ltd (assays run there as a service)
Method: PI3K (p120γ) (h) [Non-Radioactive Assay]
(§1) PI3K (p120γ) (h) is incubated in assay buffer containing 10 μM phosphatidylinositol-4,5-bisphosphate and MgATP (concentration as required). The reaction is initiated by the addition of the MgATP mix. After incubation for 30 minutes at room temperature, the reaction is stopped by the addition of stop solution containing EDTA and biotinylated phosphatidylinositol-3,4,5-trisphosphate. Finally, detection buffer is added, which contains europium-labelled anti-GST monoclonal antibody, GST-tagged GRP1 PH domain and streptavidin-allophycocyanin. The plate is then read in time-resolved fluorescence mode and the homogenous time-resolved fluorescence (HTRF) signal is determined according to the formula HTRF=10000×(Em665 nm/Em620 nm).
(§2) The kinase assays described herein were performed at Millipore UK Ltd, Dundee Technology Park, Dundee DD2 1SW, UK.

[1] = Pharmacokinetic profiles in rats; format: in vivo; details: for F: iv dose 2 mg/kg, oral dose generally 5 or 10 mg/kg; for Cl/F / AUC(0-t) / half-life / Vd: iv dosing, 2 mg/kg; for AUC(0-t) / half-life / Vd: rat, plasma; for Vd: read-out: Vss
Method: (§3) The compounds disclosed herein are assessed in pharmacokinetic studies in mice, rats, dogs or monkeys. The compounds are administered as a water solution, 2% HPMC+1% TWEEN®80 in water solution, 5% DMSO+5% solutol in saline, 4% MC suspension or capsule. For the intravenous administration, the animals are generally given at 1 or 2 mg/kg dose. For the oral (p.o.) dosing, mice and rats are generally given 5 or 10 mg/kg dose, and dogs and monkeys are generally given 10 mg/kg dose. The blood samples (0.3 mL) are drawn at 0.25, 0.5, 1.0, 2.0, 3.0, 4.0, 6.0, 8.0, 12 and 24 h time points or 0.083, 0.25, 0.5, 1.0, 2.0, 4.0, 6.0, 8.0 and 24 h time points and centrifuged at 3,000 or 4000 rpm for 2 to 10 min. The plasma solutions are collected and stored at −20° C. or −70° C. until analyzed by LC/MS/MS as described above.

[2] = Pharmacokinetic profiles in dogs; format: in vivo; details: Dog; for F: iv dose 1 mg/kg, oral dose generally 10 mg/kg; for clearance / AUC(0-t) / half-life / Vd: iv dosing, 1 mg/kg; for AUC(0-t) / half-life / Vd: plasma; for Vd: read-out: Vss
Method: as §3

[3] = Pharmacokinetic profiles in mice; format: in vivo; details: Mouse; for F: iv dose 1 mg/kg, oral dose generally 5 or 10 mg/kg; for clearance / AUC(0-t) / half-life / Vd: iv dosing, 1 mg/kg; for AUC(0-t) / half-life / Vd: plasma; for Vd: read-out: Vss
Method: as §3

[4] = Pharmacokinetic profiles in monkeys; format: in vivo; details: Monkey; for F: iv dose 1 mg/kg, oral dose generally 10 mg/kg; for Cl/F / AUC(0-t) / half-life / Vd: iv dosing, 1 mg/kg; for AUC(0-t) / half-life / Vd: plasma; for Vd: read-out: Vss
Method: as §3

PI3K p110α/p85α (h) = target: T2, PI3K p110α/p85α (h) (Homo sapiens, UniProt P42336); assay: PI3K p110α/p85α (h) non-radioactive (HTRF) assay; format: biochemical
T2 construct: purchased Millipore UK Ltd (assays run there as a service)
Method: PI3K p110α/p85α (h) [Non-Radioactive Assay]
as §1, with “p110α/p85α” for “(p120γ)”, “phosphatidylinositol 4,5-bisphosphate” for “phosphatidylinositol-4,5-bisphosphate”, “ATP solution.” for “MgATP mix.”, “streptavidin allophycocyanin.” for “streptavidin-allophycocyanin.”
as §2

T1 sequence (P48736 whole entry): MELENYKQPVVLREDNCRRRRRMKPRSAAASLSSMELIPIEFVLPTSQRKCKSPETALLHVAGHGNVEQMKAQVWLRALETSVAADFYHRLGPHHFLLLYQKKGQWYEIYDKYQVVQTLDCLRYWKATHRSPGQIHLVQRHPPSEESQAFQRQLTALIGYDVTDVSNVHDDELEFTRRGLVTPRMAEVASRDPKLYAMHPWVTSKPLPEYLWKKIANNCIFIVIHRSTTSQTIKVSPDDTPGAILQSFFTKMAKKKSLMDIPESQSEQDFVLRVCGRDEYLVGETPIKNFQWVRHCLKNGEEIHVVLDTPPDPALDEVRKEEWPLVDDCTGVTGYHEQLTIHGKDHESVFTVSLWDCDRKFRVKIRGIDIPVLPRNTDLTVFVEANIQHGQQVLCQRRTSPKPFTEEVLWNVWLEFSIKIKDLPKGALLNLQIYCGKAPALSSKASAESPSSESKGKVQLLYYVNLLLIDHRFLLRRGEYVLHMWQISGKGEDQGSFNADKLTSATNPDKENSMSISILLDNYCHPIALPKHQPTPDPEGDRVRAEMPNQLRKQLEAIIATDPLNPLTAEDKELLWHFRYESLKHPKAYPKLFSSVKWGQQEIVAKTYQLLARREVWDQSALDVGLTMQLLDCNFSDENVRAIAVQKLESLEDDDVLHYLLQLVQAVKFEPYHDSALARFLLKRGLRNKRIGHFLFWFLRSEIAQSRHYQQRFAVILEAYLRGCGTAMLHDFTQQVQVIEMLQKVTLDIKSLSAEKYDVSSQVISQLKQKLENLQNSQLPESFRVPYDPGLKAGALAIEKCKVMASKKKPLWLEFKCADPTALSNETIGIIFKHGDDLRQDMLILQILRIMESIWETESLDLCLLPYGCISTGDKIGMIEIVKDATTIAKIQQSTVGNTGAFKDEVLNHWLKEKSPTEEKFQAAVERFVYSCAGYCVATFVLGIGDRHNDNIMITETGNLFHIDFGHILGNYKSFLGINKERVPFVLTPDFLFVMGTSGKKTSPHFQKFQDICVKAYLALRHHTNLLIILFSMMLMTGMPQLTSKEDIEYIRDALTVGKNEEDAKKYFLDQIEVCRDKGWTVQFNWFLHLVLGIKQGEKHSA
T2 sequence (P42336 whole entry): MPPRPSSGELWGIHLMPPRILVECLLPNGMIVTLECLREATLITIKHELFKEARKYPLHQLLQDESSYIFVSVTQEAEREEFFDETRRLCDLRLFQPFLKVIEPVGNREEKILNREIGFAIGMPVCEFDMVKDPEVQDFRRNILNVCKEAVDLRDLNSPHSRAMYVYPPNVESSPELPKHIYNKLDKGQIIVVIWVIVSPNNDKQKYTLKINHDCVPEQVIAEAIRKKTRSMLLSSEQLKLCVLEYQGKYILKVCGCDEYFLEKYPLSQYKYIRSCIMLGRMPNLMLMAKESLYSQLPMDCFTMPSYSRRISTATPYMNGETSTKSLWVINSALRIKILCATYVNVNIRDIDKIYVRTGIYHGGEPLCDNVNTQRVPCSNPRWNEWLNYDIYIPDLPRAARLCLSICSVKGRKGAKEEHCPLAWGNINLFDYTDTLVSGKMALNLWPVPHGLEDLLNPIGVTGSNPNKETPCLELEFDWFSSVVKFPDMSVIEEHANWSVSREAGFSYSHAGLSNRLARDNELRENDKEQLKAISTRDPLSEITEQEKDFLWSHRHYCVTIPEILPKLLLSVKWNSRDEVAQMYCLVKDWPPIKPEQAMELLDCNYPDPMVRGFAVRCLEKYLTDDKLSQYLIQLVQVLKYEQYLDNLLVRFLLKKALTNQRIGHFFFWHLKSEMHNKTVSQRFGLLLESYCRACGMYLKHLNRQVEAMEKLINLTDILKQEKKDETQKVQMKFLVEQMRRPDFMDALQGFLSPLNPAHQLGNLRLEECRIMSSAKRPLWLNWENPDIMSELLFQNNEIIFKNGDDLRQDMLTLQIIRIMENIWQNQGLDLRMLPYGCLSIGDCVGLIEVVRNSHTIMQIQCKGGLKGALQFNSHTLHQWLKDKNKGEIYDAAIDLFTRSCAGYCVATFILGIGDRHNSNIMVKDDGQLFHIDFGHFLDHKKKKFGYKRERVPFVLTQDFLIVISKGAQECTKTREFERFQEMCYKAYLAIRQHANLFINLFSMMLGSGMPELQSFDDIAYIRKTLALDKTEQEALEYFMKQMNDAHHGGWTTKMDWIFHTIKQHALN
T2 sequence (P27986 whole entry partner): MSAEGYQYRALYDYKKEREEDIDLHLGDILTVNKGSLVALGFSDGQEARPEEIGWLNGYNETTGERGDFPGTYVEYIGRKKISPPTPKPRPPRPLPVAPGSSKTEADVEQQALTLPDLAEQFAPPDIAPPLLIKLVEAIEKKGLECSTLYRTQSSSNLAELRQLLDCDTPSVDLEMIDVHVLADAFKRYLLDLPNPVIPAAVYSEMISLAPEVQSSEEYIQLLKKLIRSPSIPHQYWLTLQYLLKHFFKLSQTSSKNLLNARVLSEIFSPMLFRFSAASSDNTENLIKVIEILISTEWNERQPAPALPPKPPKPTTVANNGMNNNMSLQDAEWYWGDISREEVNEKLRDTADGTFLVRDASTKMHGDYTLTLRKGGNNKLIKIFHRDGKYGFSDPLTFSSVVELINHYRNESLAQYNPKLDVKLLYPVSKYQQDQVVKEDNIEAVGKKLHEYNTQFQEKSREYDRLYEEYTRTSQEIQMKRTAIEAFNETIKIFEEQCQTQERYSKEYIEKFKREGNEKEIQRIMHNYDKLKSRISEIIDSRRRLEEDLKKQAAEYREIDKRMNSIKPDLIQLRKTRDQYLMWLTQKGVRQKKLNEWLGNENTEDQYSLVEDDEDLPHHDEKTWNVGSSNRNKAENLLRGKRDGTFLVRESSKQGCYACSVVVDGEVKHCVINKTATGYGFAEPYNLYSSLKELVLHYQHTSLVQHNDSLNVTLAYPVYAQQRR

IC50 (PI3K (p120γ) (h)) [nM]	F [1] [%]	Cl/F [1] [mL/min/kg]	AUC(0-t) [1] [ng·h/mL]	half-life [1] [h]	Vd [1] [L/kg]	F [2] [%]	clearance [2] [mL/min/kg]	AUC(0-t) [2] [ng·h/mL]	half-life [2] [h]	Vd [2] [L/kg]	F [3] [%]	clearance [3] [mL/min/kg]	AUC(0-t) [3] [ng·h/mL]	half-life [3] [h]	Vd [3] [L/kg]	F [4] [%]	Cl/F [4] [mL/min/kg]	AUC(0-t) [4] [ng·h/mL]	half-life [4] [h]	SMILES	further results
6	102.00	2.83	12100	3.93	0.32															COc1ncc(-c2ccn3ncc(C#CCO)c3n2)cc1NS(=O)(=O)c1ccc(F)cc1F [Ex. 1, 2,4-difluoro-N-(5-(3-(3-hydroxyprop-1-yn-1-yl)pyrazolo[1,5-a]pyrimidin-5-yl)-2-methoxypyridin-3-yl)benzenesulfonamide]	
5	69.48	4.33	7720	3.7	0.8															COc1ncc(-c2ccn3ncc(C#N)c3n2)cc1NS(=O)(=O)c1ccc(F)cc1F [Ex. 2, N-(5-(3-cyanopyrazolo[1,5-a]pyrimidin-5-yl)-2-methoxypyridin-3-yl)-2,4-difluorobenzenesulfonamide]	
6	94.75	4.83	7070	2.77	0.85	108.5	4.5	3670	0.67	0.23	79.3	0.33	57100	5.45	0.13	59.8	2.67	5980	9.7	COc1ncc(-c2ccn3ncc(C#N)c3c2)cc1NS(=O)(=O)c1ccc(F)cc1F [Ex. 3, N-(5-(3-cyanopyrazolo[1,5-a]pyridin-5-yl)-2-methoxypyridin-3-yl)-2,4-difluorobenzenesulfonamide]	Vd [4]: 0.92 L/kg
15	91.75	4.67	7350	1.93	0.48	108.5	1.83	9070	6.13	0.19	70.0	2.83	5810	1.11	0.18	24.0	3	5740	4.64	COc1ncc(-c2ccn3ncc(C#CCO)c3c2)cc1NS(=O)(=O)c1ccc(F)cc1F [Ex. 4, 2,4-difluoro-N-(5-(3-(3-hydroxyprop-1-yn-1-yl)pyrazolo[1,5-a]pyridin-5-yl)-2-methoxypyridin-3-yl)benzenesulfonamide]	Vd [4]: 0.42 L/kg; IC50 (PI3K p110α/p85α (h)): 1 nM
